{"source": "patent US7053041B1", "about": "“Methods and compositions useful for inhibition of αvβ5mediated angiogenesis” (The Scripps Research Institute, priority 1996, dated 2006)", "molecules": {"B1": {"name": "LM609: mouse monoclonal antibody, anti-αvβ3 (antibody, V domains shown)", "VH": "EVQLEESGGGLVKPGGSLKLSCAASGFAFSSYDMSWVRQIPEKRLEWVAKVSSGGGSTYYLDTVQGRFTISRDNAKNTLYLQMSSLNSEDTAMYYCARHNYGSFAYWGQGTLVTVSA", "VL": "ELVMTQTPATLSVTPGDSVSLSCRASQSISNHLHWYQQKSHESPRLLIKYASQSISGIPSRFSGSGSGTDFTLSINSVETEDFGMYFCQQSNSWPHTFGGGTKLEIKRA"}}, "assay_type_in_all_cases": "in vivo", "key": {"[1]": {"tested_on": "M21L human melanoma tumors", "test": "chimeric mouse:human (SCID) assay, M21L melanoma tumor growth", "details": "for tumor volume (FIG. 9): 250 μg peptide intraperitoneally 3 times per week over 3 weeks; for tumor volume (FIG. 21): M21-L tumors, peptides compared with mAB LM609", "description": "An in vivo chimeric mouse:human model was generated by replacing a portion of skin from a SCID mouse with human neonatal foreskin. The in vivo chimeric mouse:human model was prepared essentially as described in Yan, et al., J. Clin. Invest., 91:986–996 (1993). Briefly, a 2 cm^2 square area of skin was surgically removed from a SCID mouse (6–8 weeks of age) and replaced with a human foreskin. The mouse was anesthetized and the hair removed from a 5 cm^2 area on each side of the lateral abdominal region by shaving. Two circular graft beds of 2 cm^2 were prepared by removing the full thickness of skin down to the fascia. Full thickness human skin grafts of the same size derived from human neonatal foreskin were placed onto the wound beds and sutured into place. The graft was covered with a Band-Aid which was sutured to the skin. Micropore cloth tape was also applied to cover the wound.\nAfter the skin graft was established, the human foreskin was inoculated with melanoma cells. The M21L human melanoma cell line was used to form the solid human tumors on the human skin grafts on the SCID mice. A single cell suspension of 2×10^6 M21L was injected intradermally into the human skin graft. The mice were then observed for 2 to 4 weeks to allow growth of measurable human tumors.\nAfter a measurable tumor was established, either 250 μg of the peptide (in a volume of 100 μl) having SEQ ID NO 9 (cyclic RGD-containing peptide Arg-Gly-Asp-D-Phe-Asn-NMeVAL) or a control peptide, cyclo Arg-βAla-Asp-D-Phe-Val, were injected intraperitoneally into the mouse 3 times per week over 3 weeks. At the end of this time, the tumor was excised and analyzed by weight and histology.\nIn additional assays with the SCID mice model having measurable M21-L tumors, in a preliminary analysis, a dose response curve was performed for peptides 69601 (control) and 85189 (test) injected over a concentration range of 10 to 250 μg/ml. The mean volume and weight of resected tumors following treatment were determined with the results respectively shown in FIGS. 22A and 22B.\nFor analyzing peptide 85189 treatment effectiveness over a time course, two treatment regimens were evaluated in the same SCID tumor model. In one assay, treatment with either peptide 85189 or 69601 was initiated on day 6, with day 0 being the day of M21-L tumor injection of 3×10^6 cells subcutaneously into mouse skin, with intraperitoneal injections of 250 μg/ml peptide 85189 or control 69601 every other day until day 29. The other assay was identically performed with the exception that treatment was initiated on day 20. At the end of the assays, the tumors were resected and the mean tumor volume in mm^3 was determined. The data was plotted as this value +/− the standard error of the mean."}, "[2]": {"tested_on": "M21-L tumors", "test": "tumor regression on chick CAM, M21-L tumors, intravenous peptide", "details": "100 ug peptide intravenously 18 hours postimplantation; 48 hours more", "description": "(§1) In one particular set of assays, additional tumor regression assays were performed with the αvβ5-reactive peptide 85189 (SEQ ID NO 9) against 69601 (SEQ ID NO 5) as a control. The assays were performed as described above with the exception that 100 ug of peptide was intravenously injected into the CAM at 18 hourst postimplantation of the various tumors which in this case included UCLAP-3, M21-L and FgM tumor types. After 48 hours more, the tumors were then resected and wet weights were obtained."}, "[3]": {"tested_on": "FgM tumors", "test": "tumor regression on chick CAM, FgM tumors, intravenous peptide", "details": "100 ug peptide intravenously 18 hours postimplantation; 48 hours more", "description": "as §1"}, "[4]": {"tested_on": "UCLAP-3 tumors", "test": "tumor regression on chick CAM, UCLAP-3 tumors, intravenous peptide", "details": "100 ug peptide intravenously 18 hours postimplantation; 48 hours more", "description": "as §1"}, "[5]": {"tested_on": "bFGF-induced angiogenesis", "test": "chick CAM assay, bFGF-induced angiogenesis, intravenous inhibitors", "details": "for inhibition of bFGF-induced CAM angiogenesis: bFGF 150 ng/ml, 75 μg antibody or peptide intravenously, 72 hours", "description": "Ten day old chick embryos were obtained from McIntyre Poultry (Lakeside, Calif.) and incubated at 37C with 60% humidity. A small hole was made through the shell at the end of the egg directly over the air sac with the use of a small crafts drill (Dremel, Division of Emerson Electric Co., Racine, Wis.). A second hole was drilled on the broad side of the egg in a region devoid of embryonic blood vessels determined previously by candling the egg. […] A 1.0 centimeter (cm)×1.0 cm square window was cut through the shell over the dropped CAM with the use of a small model grinding wheel (Dremel). The small window allowed direct access to the underlying CAM.\nAngiogenesis was induced by placing a 5 millimeter (mm)×5 mm Whatman filter disk (Whatman Filter paper No. 1) saturated with Hanks Balanced Salt Solution (HBSS, GIBCO, Grand Island, N.Y.) or HBSS containing preselected cytokines at a preselected concentration, i.e. one to test the effect on angiogenesis, on the CAM of a 10 day chick embryo in a region devoid of blood vessels and the windows were later sealed with tape. Angiogenesis was monitored by photomicroscopy after 72 hours. CAMs were snap frozen then 6 μm cryostat sections were fixed with acetone and stained by immunofluorescence as described in Example 2B and 2C with 10 μg/ml of selected anti-integrin antibodies, including those directed against αvβ5 as described in Example 1.\nAngiogenesis was first induced on 10 day old chick embryos by application of growth factor-saturated filter disks. Specifically, in the first assays, angiogenesis was induced by exposure to either bFGF or VEGF, each at a concentration of 150 ng/ml.\nFor application of growth factors, during the candling procedures, prominent blood vessels were selected and marks were made on the egg shell to indicate their positions. The holes were drilled in the shell, the CAMs were dropped and growth factor-saturated filter papers were then separately placed on the CAMs as described above. The windows were sealed with sterile tape and the embryos were replaced in the incubator.\nTwenty four hours later, a second small window was carefully cut on the lateral side of the egg shell directly over prominent blood vessels selected previously. The outer egg shell was carefully removed leaving the embryonic membranes intact. The shell membrane was made transparent with a small drop of mineral oil (Perkin-Elmer Corp, Norwalk, Conn.) which allowed the blood vessels to be visualized easily. Then, phosphate buffered saline (PBS), 75 μg of purified sterile anti-integrin antibodies or 75 μg of synthetic peptides (cyclic peptide RGDfV, SEQ ID NO 4 and control cyclic peptide RADfV, SEQ ID NO 5) in PBS were injected into blood vessels apparent on the growth factor-induced CAMs. The windows were sealed with tape and the embryos were allowed to incubate until 72 hours.\nThe filter discs and representative surrounding CAM tissues were photographed in a stereomicroscope (FIGS. 3A–3F and FIGS. 5A–5F) and the mean angiogenic index +/− the standard error was determined for 12 CAMs per condition (FIGS. 4A–4B and FIGS. 6A–6B). Angiogenesis was scored for each embryo in a double blind manner by analyzing the number and extent of branching of blood vessels within the area of each disc. The scores ranged from 1 (low) to 4 (high) and the angiogenesis index was determined by subtracting a background of 1 from all data. […]"}}, "note": "[ ]: non-standard residue; d: D form."}
{"molecule": "cyclo(Arg-Ala-Asp-D-Phe-Val) (cyclo(RAD[dF]V); SMILES CC(C)[C@@H]1NC(=O)[C@@H](Cc2ccccc2)NC(=O)[C@H](CC(=O)O)NC(=O)[C@H](C)NC(=O)[C@H](CCCNC(=N)N)NC1=O) [peptide 69601, reference compound]", "values": [{"measurement": "tumor volume (FIG. 9)", "setting": "[1]", "value": "greater than 300 mm^3"}, {"measurement": "tumor volume (FIG. 21)", "setting": "[1]", "value": "approximately 360 mm^3"}, {"measurement": "effect on tumor wet weight, M21-L", "setting": "[2]", "value": "lack of effect"}, {"measurement": "effect on tumor wet weight, FgM", "setting": "[3]", "value": "lack of effect"}, {"measurement": "effect on tumor wet weight, UCLAP-3", "setting": "[4]", "value": "lack of effect"}, {"measurement": "inhibition of bFGF-induced CAM angiogenesis", "setting": "[5]", "value": "did not effect angiogenesis"}]}
{"molecule": "cyclo(Arg-Gly-Asp-D-Phe-NMeVal) [peptide 85189]", "values": [{"measurement": "tumor volume (FIG. 9)", "setting": "[1]", "value": "approximately 25 mm^3"}, {"measurement": "inhibition of tumor growth over a time course (mean tumor volume)", "setting": "[1]; 250 μg/ml intraperitoneally every other day from day 6 or day 20 until day 29", "value": "inhibited tumor growth"}, {"measurement": "inhibition of M21-L tumor growth, dose response (volume and weight)", "setting": "[1]; 10 to 250 μg/ml, preliminary analysis", "value": "effective at inhibiting M21-L tumor growth"}, {"measurement": "tumor volume (FIG. 21)", "setting": "[1]", "value": "below 25 mm^3"}, {"measurement": "most effective dosage", "setting": "[1]; range tested 10 to 250 μg/ml", "value": 250, "unit": "µg/mL"}, {"measurement": "effect on tumor wet weight, M21-L", "setting": "[2]", "value": "reduction in tumor weight"}, {"measurement": "effect on tumor wet weight, FgM", "setting": "[3]", "value": "reduction in tumor weight"}, {"measurement": "effect on tumor wet weight, UCLAP-3", "setting": "[4]", "value": "reduction in tumor weight"}]}
{"molecule": "B1", "values": [{"measurement": "tumor volume (FIG. 21)", "setting": "[1]", "value": "approximately 60 mm^3"}, {"measurement": "inhibition of bFGF-induced CAM angiogenesis", "setting": "[5]", "value": "inhibited bFGF-induced angiogenesis"}, {"measurement": "effect on CAM angiogenesis in response to bFGF (angiogenesis index)", "setting": "[5]; bFGF 1.0 μg/ml, antibodies 75 μg per embryo, calphostin C 100 nM", "value": "blocked angiogenesis"}]}
